Consider two compounds from PMC6320288 (Neuroscience letters, 2018).

For assay [1], the target named is T1, rat P2X4R (rP2X4R) (Rattus norvegicus, UniProt P51577).
T1 sequence (P51577 1-388): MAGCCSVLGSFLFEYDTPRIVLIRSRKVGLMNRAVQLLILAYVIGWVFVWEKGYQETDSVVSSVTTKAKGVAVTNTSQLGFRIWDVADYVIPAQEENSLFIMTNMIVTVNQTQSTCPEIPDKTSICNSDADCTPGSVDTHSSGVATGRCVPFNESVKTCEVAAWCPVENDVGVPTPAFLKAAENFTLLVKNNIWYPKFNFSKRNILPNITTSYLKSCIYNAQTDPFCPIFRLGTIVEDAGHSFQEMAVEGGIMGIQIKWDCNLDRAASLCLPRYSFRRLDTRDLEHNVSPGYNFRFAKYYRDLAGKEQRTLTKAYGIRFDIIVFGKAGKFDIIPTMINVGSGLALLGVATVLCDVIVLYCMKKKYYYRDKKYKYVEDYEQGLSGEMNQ
The assay is described as follows: cell-based.

Assay [2] concerns the target T2, rat P2X3R (Rattus norvegicus, UniProt P49654).
T2 sequence (P49654 1-397): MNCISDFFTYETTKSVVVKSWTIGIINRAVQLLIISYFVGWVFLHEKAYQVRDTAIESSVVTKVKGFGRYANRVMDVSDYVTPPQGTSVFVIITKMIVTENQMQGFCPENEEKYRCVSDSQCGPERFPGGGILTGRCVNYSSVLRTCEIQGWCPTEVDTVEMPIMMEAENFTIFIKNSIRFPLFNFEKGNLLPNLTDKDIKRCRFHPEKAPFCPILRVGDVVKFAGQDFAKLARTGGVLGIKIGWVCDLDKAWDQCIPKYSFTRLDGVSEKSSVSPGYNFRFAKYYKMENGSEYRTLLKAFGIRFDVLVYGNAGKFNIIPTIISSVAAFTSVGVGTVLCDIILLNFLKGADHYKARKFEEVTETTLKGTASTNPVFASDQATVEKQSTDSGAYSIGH
The assay is described as follows: whole-cell patch clamp in transfected HEK293 cells. Conditions: HEK293, read-out: % inhibition at 10 μM. It counts as cell-based.

Broadly, the EC50 is the concentration needed to bring the measured effect to its halfway point. Regarding `Nc1ncnc2c1ncn2[C@@H]1O[C@H](COP(=O)(O)OP(=O)(O)OP(=O)(O)O)[C@@H](O)[C@H]1O` [ATP], the EC50 in assay [1] is 4.7 ± 1.8 µM.

Usually inhibition stands for the relative decrease from the control value, in per cent. On to `O=C1CN=C(c2cccc(Br)c2)c2oc3ccccc3c2N1` [5-BDBD, 5-(3-bromophenyl)-1,3-dihydro-2H-benzofuro[3,2-e]-1,4-diazepin-2-one], for which, in assay [2], the inhibition at 10 µM amounted to 35.9 ± 10.1%.
